From the supplement of paper PMC10307832

Tests used:
Test in all cases: relative viability (nuclei count vs DMSO), 5 days (fraction); higher = more cells survive
[1] = compound: O=C(/C=C/c1ccccc1)NC(NC(=S)Nc1cccc2cccnc12)C(Cl)(Cl)Cl [Salubrinal] + C[C@]1(O)C[C@@H](c2nc(-c3ccc4ccc(-c5ccccc5)nc4c3)c3c(N)nccn32)C1 [Linsitinib] (partner 1 µM)
Summary of the method: (§1)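 Medians of duplicate plates are given as relative viability. That measure is the nuclei count in treated wells divided by the count in vehicle wells. Counts were taken on 4× images of lung cancer cell lines in 1536-well plates, 5 days after pin-tool dosing the day after seeding with one drug alone or a fixed anchor-drug dose plus five library-drug doses (not always all listed) in √10 steps.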

[2] = compound: O=C(/C=C/c1ccccc1)NC(NC(=S)Nc1cccc2cccnc12)C(Cl)(Cl)Cl [Salubrinal] + Cc1nc(NC(=O)N2CCC[C@H]2C(N)=O)sc1-c1ccnc(C(C)(C)C(F)(F)F)c1 [Alpelisib] (partner 2 µM)
Summary of the method: as §1

[3] = compound: O=C(/C=C/c1ccccc1)NC(NC(=S)Nc1cccc2cccnc12)C(Cl)(Cl)Cl [Salubrinal] + COc1cccc2cc(-c3nc([C@H]4CC[C@H](C(=O)O)CC4)n4ncnc(N)c34)[nH]c12 [OSI-027] (partner 0.5 µM)
Summary of the method: as §1

[4] = compound: O=C(/C=C/c1ccccc1)NC(NC(=S)Nc1cccc2cccnc12)C(Cl)(Cl)Cl [Salubrinal] + O=C(CCCCCCC(=O)Nc1ccccc1)NO [Vorinostat] (partner 1 µM)
Summary of the method: as §1

Cell Line | relative viability ([1]; first compound 0.08 µM) | relative viability ([1]; first compound 0.253 µM) | relative viability ([1]; first compound 0.8 µM) | relative viability ([1]; first compound 2.53 µM) | relative viability ([1]; first compound 8 µM) | relative viability ([2]; first compound 0.08 µM) | relative viability ([2]; first compound 0.253 µM) | relative viability ([2]; first compound 0.8 µM) | relative viability ([2]; first compound 2.53 µM) | relative viability ([2]; first compound 8 µM) | relative viability ([3]; first compound 0.08 µM) | relative viability ([3]; first compound 0.253 µM) | relative viability ([3]; first compound 0.8 µM) | relative viability ([3]; first compound 2.53 µM) | relative viability ([3]; first compound 8 µM) | relative viability ([4]; first compound 0.08 µM) | relative viability ([4]; first compound 0.253 µM) | relative viability ([4]; first compound 0.8 µM) | relative viability ([4]; first compound 2.53 µM) | relative viability ([4]; first compound 8 µM)
NCI-H1793 | 1.1 | 0.798 | 1.04 | 0.795 | 0.636 | 1 | 0.722 | 0.837 | 0.798 | 0.617 | 0.308 | 0.331 | 0.307 | 0.23 | 0.236 | 0.942 | 0.57 | 0.995 | 0.814 | 0.719
NCI-H2347 | 1.06 | 1 | 1.06 | 1.15 | 0.963 | 1.11 | 0.928 | 1.25 | 1.06 | 1.08 | 0.289 | 0.308 | 0.379 | 0.349 | 0.422 | 0.558 | 0.514 | 0.608 | 0.686 | 0.639
NCI-H1993 | 0.757 | 0.722 | 0.775 | 0.805 | 0.816 | 0.62 | 0.595 | 0.735 | 0.688 | 0.676 | 0.58 | 0.564 | 0.509 | 0.495 | 0.584 | 0.939 | 0.592 | 0.805 |  | 0.867
NCI-H322M | 1.1 | 0.858 | 0.927 | 0.891 | 0.823 | 0.783 | 0.849 | 0.863 | 0.788 | 0.739 | 0.471 | 0.536 | 0.565 | 0.57 | 0.471 | 0.909 | 0.85 | 0.831 | 0.89 | 0.85
NCI-H838 | 1.25 | 0.722 | 1.08 | 1.13 | 0.98 | 1.03 | 0.629 | 0.969 | 1.01 | 0.942 | 0.327 | 0.402 | 0.372 | 0.4 | 0.407 | 0.764 | 0.736 | 0.728 | 0.697 | 0.751
HARA | 1.09 | 0.905 | 0.936 | 0.898 | 0.99 | 0.948 | 0.931 | 0.848 | 0.937 | 0.78 | 0.539 | 0.557 | 0.582 | 0.524 | 0.462 | 0.617 | 0.631 | 0.597 | 0.478 | 0.475
NCI-H2087 | 1.01 | 0.942 | 0.98 | 0.782 | 1.02 | 1.14 | 0.861 | 1.05 | 1.33 | 1.09 | 0.517 | 0.481 | 0.626 | 0.515 | 0.563 | 0.981 | 0.368 | 0.67 | 0.676 | 0.762
NCI-H1437 | 1.27 | 0.691 | 1.19 | 1.06 | 0.853 | 1.12 | 0.782 | 1.15 | 0.94 | 0.969 | 0.9 | 0.811 | 0.924 | 0.912 | 0.851 | 0.841 | 0.787 | 0.812 | 0.814 | 0.714
NCI-H358 | 0.77 | 0.693 | 0.76 | 0.773 | 0.637 | 1.03 | 0.676 | 0.886 | 0.792 | 0.675 | 0.83 | 0.74 | 0.848 | 0.582 | 0.672 | 0.804 | 0.659 | 0.757 | 0.641 | 0.661
NCI-H650 | 0.778 | 0.772 | 0.99 | 0.959 | 0.756 | 1.29 | 1.14 | 1.14 | 1.11 | 1.04 | 0.584 | 0.554 | 0.576 | 0.629 | 0.452 | 0.477 | 0.494 | 0.382 | 0.48 | 0.404
COR-L23 | 1.16 | 0.676 | 1.24 | 1 | 0.888 | 0.908 | 0.792 | 0.875 | 0.965 | 0.631 | 0.868 | 0.547 | 1.1 | 0.794 | 0.71 | 0.471 | 0.419 | 0.534 | 0.323 | 0.356
COR-L 105 | 1.04 | 1.03 | 0.737 | 0.953 | 0.776 | 1.01 | 0.906 | 1.04 | 1.06 | 0.831 | 0.74 | 0.632 | 0.758 | 0.735 | 0.613 | 1.08 | 0.816 | 0.843 | 0.797 | 0.747
LK-2 | 0.558 | 0.521 | 0.762 | 0.757 | 0.723 | 1.33 | 1.07 | 1.23 | 1.19 | 1.08 | 0.185 | 0.194 | 0.258 | 0.212 | 0.214 | 0.257 | 0.279 | 0.356 | 0.395 | 0.325
201T | 1.04 | 0.982 | 1.09 | 1.07 | 0.97 | 1.07 | 0.999 | 1.05 | 1.02 | 1.01 | 0.933 | 0.799 | 0.863 | 0.782 | 0.732 | 1.08 | 0.922 | 1.03 | 1.03 | 0.933
HCC-44 | 0.761 | 0.754 | 0.731 | 0.703 | 0.65 | 0.904 | 0.758 | 0.806 | 0.84 | 0.671 | 0.371 | 0.411 | 0.759 | 0.501 | 0.484 | 1.04 | 1.1 | 1.13 | 1 | 1.04
NCI-H596 | 1.07 | 0.936 | 1.17 | 1.1 | 0.903 | 0.55 | 0.426 | 0.441 | 0.572 | 0.528 | 0.657 | 0.721 | 0.793 | 0.716 | 0.646 | 0.607 | 0.356 | 0.796 | 0.825 | 0.715
